From US20260315487A1, “IKK-ALPHA INHIBITORS” (Cancer Research Technology Limited, priority 2023, published 2026)
Like-named read-outs stand apart in the source and are kept apart here.

Tests used:
CDK5 = CDK5 (Homo sapiens, UniProt Q00535); assay: kinome profiling at 1 μM, CDK5; type: biochemical; settings: read-out: % inhibition of CDK5
Description: (§1) We profiled three compounds from the series across the kinome (FIG. 11). […] To identify the structural drivers for CDK inhibition, we obtained X-ray crystal structures of 5 y and 6 g SU1336 and SU1349 with CDK-2 (FIG. 12A) to potentially identify possible routes towards introducing selectivity for IKKα over the CDK enzymes as well as IKKβ. […] All three derivatives form complexes with CDK2 with the pyrrolo[2,3 -b]pyridine H-bonding to GK+3 (Leu 83 ) and the aminoindazole projected towards the G-loop (FIG. 12A), forming H-bonds with Glu 51 and Lys 33 at the back of the pocket. The adoption of the 4 SU1253 -type orientation, rather than the flipped pose observed in IKKα, is probably facilitated by Tr-stacking between the aminoindazole and the GK residue, which in the CDKs is Phe, rather than Met. […] For 6 g SU1349, the hydrophobic pendant benzyloxy group points out into solvent, but can form face-to-edge Tr-Tr interactions with Phe 82 and His 84 from the hinge. Exchanging the hydrophobic pendant benzyloxy group for the morpholinoethyl-containing substituent in 5 y SU1336 removes any direct interaction with these hinge residues, preferring to sit in a more solvent-exposed position, as befits a basic side chain that will be protonated at physiological pH (FIG. 12B).
Black, 4 SU1253; grey, 5 r SU1261; diagonal stripes, 6 g SU1349. […] All tested compounds (4 SU1253, 5 r SU1261 and 6 g SU1349 ) inhibited CDK5 and CDK9 with >80 %.

[1] = mouse hepatocyte clearance (cryopreserved pooled mouse CD1 hepatocytes); type: in vitro ADME; settings: mouse, hepatocytes; 1 μM; 0.5×10^6 cells/mL; 37° C.
Procedure: Pharmacokinetic studies were contracted to Sygnature Discovery Limited. Intrinsic clearance and half life were determined using cryopreserved pooled mouse CD1 hepatocytes. Test compounds were analysed at 1 μM in Williams Media E buffer (0.01 % DMSO) at a cell density of 0.5×10^6 cells mL^−1 . Cells were incubated at 37° C. for one hour with shaking and compound depletion was measured by LC-MS/MS at six timepoints (0.25, 5, 10, 20, 40, and 60 minutes).

PRAK = molecular target: T1, PRAK (Homo sapiens, UniProt Q8IW41); assay: kinome profiling at 1 μM, PRAK; type: biochemical
T1 sequence (Q8IW41 1-473): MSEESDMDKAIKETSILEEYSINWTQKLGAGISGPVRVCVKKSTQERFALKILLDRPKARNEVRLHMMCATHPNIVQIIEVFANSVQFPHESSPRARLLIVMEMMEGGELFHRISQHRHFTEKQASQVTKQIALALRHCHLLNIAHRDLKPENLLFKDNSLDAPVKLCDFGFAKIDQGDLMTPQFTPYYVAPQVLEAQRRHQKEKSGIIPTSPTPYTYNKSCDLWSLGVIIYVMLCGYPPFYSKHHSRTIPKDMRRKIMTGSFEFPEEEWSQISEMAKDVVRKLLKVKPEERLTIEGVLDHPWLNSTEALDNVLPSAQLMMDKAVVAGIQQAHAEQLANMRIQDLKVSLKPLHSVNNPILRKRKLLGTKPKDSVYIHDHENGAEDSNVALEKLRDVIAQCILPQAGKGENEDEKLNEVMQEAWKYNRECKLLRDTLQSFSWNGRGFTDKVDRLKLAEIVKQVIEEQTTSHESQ
Description: as §1

IKKβ = molecular target: T2, IKKβ (Homo sapiens, UniProt O14920); assay: in-house DELFIA kinase assay, IKKβ; type: biochemical
T2 sequence (O14920 1-756): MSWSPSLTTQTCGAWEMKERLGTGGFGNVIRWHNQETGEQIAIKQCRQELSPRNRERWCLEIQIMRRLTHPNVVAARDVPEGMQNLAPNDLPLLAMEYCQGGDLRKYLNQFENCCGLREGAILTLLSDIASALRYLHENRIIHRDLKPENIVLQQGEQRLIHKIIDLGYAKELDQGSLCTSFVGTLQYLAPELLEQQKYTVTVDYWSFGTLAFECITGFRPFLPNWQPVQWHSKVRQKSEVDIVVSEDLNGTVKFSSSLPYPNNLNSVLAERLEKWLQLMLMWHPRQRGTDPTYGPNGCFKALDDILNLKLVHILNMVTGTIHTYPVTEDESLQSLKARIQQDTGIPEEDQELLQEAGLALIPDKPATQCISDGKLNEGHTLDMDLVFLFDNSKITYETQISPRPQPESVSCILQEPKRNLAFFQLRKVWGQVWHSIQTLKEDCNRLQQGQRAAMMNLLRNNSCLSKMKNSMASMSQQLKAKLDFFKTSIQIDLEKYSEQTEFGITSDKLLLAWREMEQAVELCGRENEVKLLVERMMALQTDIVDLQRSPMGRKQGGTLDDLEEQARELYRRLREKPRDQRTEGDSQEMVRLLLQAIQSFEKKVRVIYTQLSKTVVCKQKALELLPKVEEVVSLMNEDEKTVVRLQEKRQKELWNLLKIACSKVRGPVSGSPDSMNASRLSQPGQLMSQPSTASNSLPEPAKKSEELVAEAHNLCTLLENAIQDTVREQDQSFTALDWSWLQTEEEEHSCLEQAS

CDK5, sequence (Q00535 whole entry, species assumed): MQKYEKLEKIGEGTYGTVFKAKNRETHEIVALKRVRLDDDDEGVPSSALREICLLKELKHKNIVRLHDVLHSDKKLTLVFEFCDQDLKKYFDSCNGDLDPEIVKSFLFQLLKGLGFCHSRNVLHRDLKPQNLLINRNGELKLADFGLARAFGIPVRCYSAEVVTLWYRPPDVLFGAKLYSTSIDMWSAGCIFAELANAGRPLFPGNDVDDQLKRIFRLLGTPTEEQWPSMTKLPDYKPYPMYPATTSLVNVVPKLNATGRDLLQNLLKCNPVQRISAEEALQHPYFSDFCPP
CDK5, sequence (Q15078 99-307 partner limits assumed, species assumed): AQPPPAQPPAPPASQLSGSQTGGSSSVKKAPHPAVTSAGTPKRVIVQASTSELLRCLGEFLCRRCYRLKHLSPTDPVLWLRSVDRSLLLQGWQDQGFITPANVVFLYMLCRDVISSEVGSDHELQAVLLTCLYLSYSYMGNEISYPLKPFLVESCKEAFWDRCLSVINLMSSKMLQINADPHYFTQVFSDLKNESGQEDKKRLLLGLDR

Compound	inhibition at 1 µM (CDK5; 1 μM)	hepatocyte CLint [1]	inhibition at 1 µM (PRAK)	IKKβ inhibition, in words (IKKβ)	Ki (IKKβ)	inhibition at 1 µM (CDK5)	off-target inhibition of PRAK, in words (PRAK; compared with 5r SU1261)
Nc1n[nH]c2ccc(-c3ccnc4[nH]c(-c5cccc(OCc6ccccc6)c5)cc34)cc12 [5r SU1261, 5-(2-(3-(benzyloxy)phenyl)-1 H-pyrrolo[2,3-b]pyridin-4-yl)-1 H-indazol-3-amine]	> 80%	38 µL/min/1e6 cells	> 80%	lowest activity against IKKβ	680 nM	–	–
Nc1n[nH]c2ccc(-c3ccnc4[nH]c(-c5ccnc(OCc6ccccc6)c5)cc34)cc12 [6g SU1349, 5-(2-(2-(Benzyloxy)pyridin-4-yl)-1 H-pyrrolo[2,3-b]pyridin-4-yl)-1 H-indazol-3-amine]	–	27 µL/min/1e6 cells	–	–	3350 nM	> 80%	significantly reduced off-target inhibition
